Read-outs that look alike come from different tables or passages of the source. Peptide text beside a SMILES is read from it. * marks the point of attachment. Hexanoyl(6-maleimido) = O=C1C=CC(=O)N1CCCCCC(=O)*; X36 = O=C1C=CC(=O)N1c1ccc(CCCCCCCCCCCC(=O)*)cc1; X73 = O=C1C=CC(=O)N1c1ccc(CCCCCCCCCC(=O)*)cc1; X53 = O=C1C=CC(=O)N1CCOCCOCCOCCOCCCCCCC(=O)*; X43 = O=C1C=CC(=O)N1c1ccc(CCCCCCC(=O)*)cc1; X28 = O=C1C=CC(=O)N1CCOCCOCCOCCCCCCC(=O)*; X69 = O=C1C=CC(=O)N1c1ccc(CCCCC(=O)*)cc1; X16 = O=C1C=CC(=O)N1CCOCCOCCCCCCC(=O)*; X8 = O=C1C=CC(=O)N1CCOCCOCCCC(=O)*; X12 = O=C1C=CC(=O)N1CCOCCCCC(=O)*
Experiment: Half-lives and pharmacokinetic parameters of polypeptides vs HM-1
Details: in vivo

| SMILES | AUC(0-inf) | MRT inf | clearance | half-life (T1/2β (half-life)) | AUC(0-inf) (read-out: AUC0-∞) | clearance (read-out: CL (converted)) | MRT inf (read-out: MRT0-∞) | half-life (read-out: T1/2β (half-life) (converted)) |
| --- | --- | --- | --- | --- | --- | --- | --- | --- |
| C[C@H](NC(=O)CNC(=O)[C@H](CCCNC(=N)N)NC(=O)CCCCCCOCCOCCOCCOCCN1C(=O)C=CC1=O)C(=O)N[C@@H](CC(=O)O)C(=O)N[C@@H](CCCNC(=N)N)C(=O)N[C@@H](C)C(=O)NCC(=O)NCC(=O)NCC(=O)NCC(=O)N[C@@H](CCCNC(=N)N)C(=O)NCC(=O)N[C@@H](CC(=O)O)C(=O)O [X75] (X53-RGADRAGGGGRGD-OH) | 26700 ± 6960 ng·h/mL | 47.8 ± 13.9 h | 0.623 mL/min/kg | 33.15 ± 0.25 h | – | – | – | – |
| C[C@H](NC(=O)CNC(=O)[C@H](CCCNC(=N)N)NC(=O)CCCCCCOCCOCCOCCN1C(=O)C=CC1=O)C(=O)N[C@@H](CC(=O)O)C(=O)N[C@@H](CCCNC(=N)N)C(=O)N[C@@H](C)C(=O)NCC(=O)NCC(=O)NCC(=O)NCC(=O)N[C@@H](CCCNC(=N)N)C(=O)NCC(=O)N[C@@H](CC(=O)O)C(=O)O [X68] (X28-RGADRAGGGGRGD-OH) | 31800 ± 7920 ng·h/mL | 57 ± 10.3 h | 0.523 mL/min/kg | 39.52 ± 0.34 h | – | – | – | – |
| C[C@H](NC(=O)CNC(=O)[C@H](CCCNC(=N)N)NC(=O)CCCOCCOCCN1C(=O)C=CC1=O)C(=O)N[C@@H](CC(=O)O)C(=O)N[C@@H](CCCNC(=N)N)C(=O)N[C@@H](C)C(=O)NCC(=O)NCC(=O)NCC(=O)NCC(=O)N[C@@H](CCCNC(=N)N)C(=O)NCC(=O)N[C@@H](CC(=O)O)C(=O)O [X58] (X8-RGADRAGGGGRGD-OH) | 26200 ± 7810 ng·h/mL | 47.9 ± 13.5 h | 0.635 mL/min/kg | 32.57 ± 0.28 h | – | – | – | – |
| C[C@H](NC(=O)CNC(=O)[C@H](CCCNC(=N)N)NC(=O)CCCCCCOCCOCCN1C(=O)C=CC1=O)C(=O)N[C@@H](CC(=O)O)C(=O)N[C@@H](CCCNC(=N)N)C(=O)N[C@@H](C)C(=O)NCC(=O)NCC(=O)NCC(=O)NCC(=O)N[C@@H](CCCNC(=N)N)C(=O)NCC(=O)N[C@@H](CC(=O)O)C(=O)O [X61] (X16-RGADRAGGGGRGD-OH) | 25600 ± 7550 ng·h/mL | 45.7 ± 13.6 h | 0.652 mL/min/kg | 31.69 ± 0.28 h | – | – | – | – |
| C[C@H](NC(=O)CNC(=O)[C@H](CCCNC(=N)N)NC(=O)CCCCCN1C(=O)C=CC1=O)C(=O)N[C@@H](CC(=O)O)C(=O)N[C@@H](CCCNC(=N)N)C(=O)N[C@@H](C)C(=O)NCC(=O)N[C@@H](CO)C(=O)N[C@@H](CO)C(=O)N[C@@H](CO)C(=O)N[C@@H](CO)C(=O)N[C@@H](CCCNC(=N)N)C(=O)NCC(=O)N[C@@H](CC(=O)O)C(=O)O [P14] ({Hexanoyl(6-maleimido)}-RGADRAGSSSSRGD-OH; C-terminus assumed) | – | – | – | – | 32200 ± 7560 ng·h/mL | 0.518 mL/min/kg | 57.5 ± 9.63 h | 39.85 ± 0.31 h |

Continued, values first:

| AUC(0-inf) | MRT inf | clearance | half-life (T1/2β (half-life)) | AUC(0-inf) (read-out: AUC0-∞) | clearance (read-out: CL (converted)) | MRT inf (read-out: MRT0-∞) | half-life (read-out: T1/2β (half-life) (converted)) | SMILES |
| --- | --- | --- | --- | --- | --- | --- | --- | --- |
| 33200 ± 7130 ng·h/mL | 59.4 ± 12 h | 0.502 mL/min/kg | 41.19 ± 0.27 h | – | – | – | – | C[C@H](NC(=O)CNC(=O)[C@H](CCCNC(=N)N)NC(=O)CCCCCCCCCCCc1ccc(N2C(=O)C=CC2=O)cc1)C(=O)N[C@@H](CC(=O)O)C(=O)N[C@@H](CCCNC(=N)N)C(=O)N[C@@H](C)C(=O)NCC(=O)NCC(=O)NCC(=O)NCC(=O)N[C@@H](CCCNC(=N)N)C(=O)NCC(=O)N[C@@H](CC(=O)O)C(=O)O [X47] (X36-RGADRAGGGGRGD-OH) |
| 27900 ± 8180 ng·h/mL | 50.1 ± 9.67 h | 0.597 mL/min/kg | 34.69 ± 0.34 h | – | – | – | – | C[C@H](NC(=O)CNC(=O)[C@H](CCCNC(=N)N)NC(=O)CCCCOCCN1C(=O)C=CC1=O)C(=O)N[C@@H](CC(=O)O)C(=O)N[C@@H](CCCNC(=N)N)C(=O)N[C@@H](C)C(=O)NCC(=O)NCC(=O)NCC(=O)NCC(=O)N[C@@H](CCCNC(=N)N)C(=O)NCC(=O)N[C@@H](CC(=O)O)C(=O)O [X52] (X12-RGADRAGGGGRGD-OH) |
| 34000 ± 7830 ng·h/mL | 60.9 ± 10.7 h | 0.49 mL/min/kg | 42.23 ± 0.27 h | – | – | – | – | C[C@H](NC(=O)CNC(=O)[C@H](CCCNC(=N)N)NC(=O)CCCCc1ccc(N2C(=O)C=CC2=O)cc1)C(=O)N[C@@H](CC(=O)O)C(=O)N[C@@H](CCCNC(=N)N)C(=O)N[C@@H](C)C(=O)NCC(=O)NCC(=O)NCC(=O)NCC(=O)N[C@@H](CCCNC(=N)N)C(=O)NCC(=O)N[C@@H](CC(=O)O)C(=O)O [X40] (X69-RGADRAGGGGRGD-OH) |
| 24300 ± 8330 ng·h/mL | 43.5 ± 12 h | 0.685 mL/min/kg | 30.15 ± 0.26 h | – | – | – | – | C[C@H](NC(=O)CNC(=O)[C@H](CCCNC(=N)N)NC(=O)CCCCCCCCCc1ccc(N2C(=O)C=CC2=O)cc1)C(=O)N[C@@H](CC(=O)O)C(=O)N[C@@H](CCCNC(=N)N)C(=O)N[C@@H](C)C(=O)NCC(=O)NCC(=O)NCC(=O)NCC(=O)N[C@@H](CCCNC(=N)N)C(=O)NCC(=O)N[C@@H](CC(=O)O)C(=O)O [X45] (X73-RGADRAGGGGRGD-OH) |
| 27100 ± 8010 ng·h/mL | 48.5 ± 10.6 h | 0.615 mL/min/kg | 33.58 ± 0.24 h | – | – | – | – | C[C@H](NC(=O)CNC(=O)[C@H](CCCNC(=N)N)NC(=O)CCCCCCc1ccc(N2C(=O)C=CC2=O)cc1)C(=O)N[C@@H](CC(=O)O)C(=O)N[C@@H](CCCNC(=N)N)C(=O)N[C@@H](C)C(=O)NCC(=O)NCC(=O)NCC(=O)NCC(=O)N[C@@H](CCCNC(=N)N)C(=O)NCC(=O)N[C@@H](CC(=O)O)C(=O)O [X42] (X43-RGADRAGGGGRGD-OH) |
